In patent US20260294845A1, “Uses of Adrenalone to Manage Cardiotoxicity or Cardiovascular Disorders” (Emory University, priority 2023, published 2026):
Entries after “also recorded” stand apart in the source; their conditions may differ.

How the values were obtained:
hiPSC-CMs [1] = assay: Cell viability of hiPSC-CMs treated with carfilzomib with or without 4H10 (CellTiter-Blue); format: cell-based, human; conditions: carfilzomib 5 μM alone, 24 h, IMR-90 hiPSC-CMs, compared with DMSO
Protocol: Cell viability was analyzed after IMR-90 hiPSC-CMs were treated with carfilzomib (CFZ) with or without 4H10 for 24 hours. (n=5 cultures).
(§1) A human induced pluripotent cell line (hiPSC line IMR90™, WiCell Research Institute) was fed daily on Matrigel™-coated plates with a defined medium for hiPSC culture, mTeSR1 medium. For CM differentiation, hiPSCs were induced using a growth factor-driven differentiation protocol as reported in Jha et al. Efficient differentiation of cardiomyocytes from human pluripotent stem cells with growth factors. Methods Mol Biol, 2015, 1299, 115-131. On the day of induction (day 0), medium was replaced with RPMI 1640 medium supplemented with 2% B27 minus insulin (a cell culture supplement) containing 100 ng/ml activin A. After induction for 24 h, the medium was replaced with fresh RPMI supplemented with 2% B27 minus insulin containing 10 ng/ml BMP4. From day 4 of differentiation, the medium was replaced with RPMI supplemented with 2% B27. On day 5, the cells were dissociated and reseeded into AggreWell400™ plates to acquire cardiac spheres. After 24 h, the cardiac spheres formed were collected and transferred to low-adhesion dishes for suspension culture. The medium was changed every other day. Cardiac spheres typically started beating spontaneously by day 7 to 9.
Cardiomyocytes derived from human pluripotent stem cells (hiPSC-CMs) were provide a new platform for the studies of cancer drug-induced side effects and therapies. Using these cells, lead molecules were identified indicating protective properties on cardiomyocytes from the toxic effect of chemotherapy agents and ethanol (EtOH). […] Oxidative stress is a common molecular mechanism for cardiotoxicity induced by chemotherapy including proteosome inhibitors.
Consistently, treatment of hiPSC-CMs induced cell death and cytotoxicity. To examine if 4H10 could protect cardiomyocytes from carfilzomib-induced cytotoxicity, hiPSC-CMs were treated with carfilzomib at 5 μM alone or together with 4H10 at various concentrations for 24 h and then examined cell viability using the CellTiter-Blue Cell Viability Assay. Cells treated with DMSO (vehicle) were used as a control.

[2] = carfilzomib, serum; read-out: maximum (or peak) serum concentration, Cmax; cited from earlier work
hiPSC-CMs [3] = assay: Intracellular oxidative stress (ROS) of carfilzomib-treated hiPSC-CMs, DCFDA/H2DCFDA assay; format: cell-based, human; conditions: carfilzomib 5 μM alone, 24 h, SCVI hiPSC-CMs
Protocol: The quantification of oxidative stress was performed using DCFDA staining of SCVI hiPSC-CMs treated with Cfz with or without 4H10 for 24 hours.
The induction of oxidative stress is a crucial mechanism through which proteasome inhibitors induce apoptosis. To investigate if 4H10 could alleviate carfilzomib-induced increase of oxidative stress in cardiomyocytes, hiPSC-CMs were exposed to carfilzomib at 5 μM alone or together with 4H10 at various concentrations for 24 h. The production of cellular reactive oxygen species (ROS) was then measured using DCFDA/H2DCFDA assay kit.

proteasome [4] = assay: Proteasome activity in RPMI8226 cells after carfilzomib with or without 4H10; format: cell-based; conditions: carfilzomib, 24 h, compared to DMSO
Protocol: (§2) (top) Proteasome activity of IMR-90 hiPSC-CMs was measured after the cells were treated with CFZ with or without 4H10 for 24 hours. (bottom, right, left) Proteasome activity and cell viability of RPMI8226 cells (cancer cells) were measured after the cells were treated with CFZ with or without 4H10 for 24 hours.
(§3) Experiments were designed to determine the effects of carfilzomib and 4H10 on proteasome activity and cell viability of RPMI8226 cell line, which has been investigated for the efficacy tests of carfilzomib in […].

hiPSC-CMs [5] = assay: MitoTracker Red staining (mitochondrial content and activity) of carfilzomib-treated hiPSC-CMs, high-content imaging; format: cell-based, human; conditions: carfilzomib alone, 24 h, IMR-90 hiPSC-CMs
Protocol: MitoTracker™ Red staining was performed in IMR-90 hiPSC-CMs treated with CFZ with or without 4H10 for 24 hours.
as §1
Mitochondria play a crucial role in energy production, cellular metabolism, and the regulation of cell death. Experiments indicate carfilzomib induces mitochondrial dysfunction in hiPSC-CMs. To assess the potential mitigating effects of 4H10 on carfilzomib-induced mitochondrial dysfunction, hiPSC-CMs were treated with carfilzomib alone or co-treated with 4H10 at various concentrations. Mitochondria were then visualized using MitoTracker™ Red dyes, which can accumulate in active mitochondria and allow for the measurement of mitochondrial content and activity in live cells.

RPMI8226 cells = assay: Cell viability of RPMI8226 cells after carfilzomib with or without 4H10; format: cell-based; conditions: carfilzomib, 24 h, compared to DMSO
Protocol: as §2, §3

proteasome [6] = assay: Proteasome activity in hiPSC-CMs after carfilzomib with or without 4H10; format: cell-based, human; conditions: carfilzomib, 24 h, IMR-90 hiPSC-CMs, compared with DMSO
Protocol: as §2
The proteasome, responsible for the regulated degradation of proteins, is a key cellular component targeted by carfilzomib as part of its mechanism of action in cancer therapy. Therefore, in addition to validation of cardioprotective effects of 4H10 on cell viability and mitochondrial function, it is crucial to examine if 4H10 compromises the proteasome inhibition efficacy of carfilzomib.

patients = conditions: among the proteosome inhibitors; cited from earlier work
hiPSC-CMs [7] = conditions: carfilzomib; Forghani et al., 2021; cited from earlier work
hiPSC-CMs [8] = assay: Effects of chemotherapeutic agents on function of hiPSC-CMs; format: cell-based, human; conditions: carfilzomib treatment

## CC(C)C[C@H](NC(=O)[C@H](CCc1ccccc1)NC(=O)CN1CCOCC1)C(=O)N[C@@H](Cc1ccccc1)C(=O)N[C@@H](CC(C)C)C(=O)[C@@]1(C)CO1 [carfilzomib]
hiPSC-CMs [1]
  cell viability (cytotoxicity) after carfilzomib: caused cytotoxicity; also recorded: significant decrease in cell viability
[2]
  Cmax: 5.88 µM
hiPSC-CMs [3]
  DCFDA fluorescence intensity (oxidative stress): significant increase in DCFDA fluorescence intensity
Proteasome [4]
  proteasome activity in RPMI8226 cells: suppressed
hiPSC-CMs [5]
  mitochondrial mass and activity (MitoTracker Red fluorescence intensity): reduction in mitochondrial mass and activity
RPMI8226 cells
  viability of RPMI8226 cells: significantly decreased the viability
Proteasome [6]
  cellular proteasome activity: significant decrease in cellular proteasome activity
patients
  cardiotoxicity in clinic: highest cardiotoxicity in clinic
hiPSC-CMs [7]
  molecular and functional alterations of hiPSC-CMs: causes molecular and functional alterations
hiPSC-CMs [8]
  Ca^2+ handling of hiPSC-CMs: negatively affects
  contractility of hiPSC-CMs: negatively affects
  mitochondrial function of hiPSC-CMs: negatively affects
  traction forces of hiPSC-CMs: negatively affects
